Measurements published in patent US11566007B2, “Ras inhibitors” (Revolution Medicines, Inc., priority 2019, dated 2023).
Values joined by “and” are separate entries in the source; they are usually repeats but may differ in a detail not shown here. Equal values may be shown once. Read-outs that look alike come from different tables or passages of the source.

Key:
[1] = target: KRAS G12S (Homo sapiens (Human), UniProt P01116+P62937, G12S); experiment: Ras-Raf (BRAF RBD) disruption / FRET / MOA assay, KRAS G12S; type: biochemical; conditions: Ras-Raf disruption/FRET/MOA assay; class symbols; read-out: KRAS G12S FRET data IC50
Chain of KRAS G12S (P01116-2 other isoform, or with tags, fused parts or gaps G12S): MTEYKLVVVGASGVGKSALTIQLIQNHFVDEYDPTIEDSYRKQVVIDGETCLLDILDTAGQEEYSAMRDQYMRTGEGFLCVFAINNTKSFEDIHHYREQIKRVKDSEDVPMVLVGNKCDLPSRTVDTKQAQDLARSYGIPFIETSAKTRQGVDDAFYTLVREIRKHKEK
Chain of KRAS G12S (P62937 whole entry): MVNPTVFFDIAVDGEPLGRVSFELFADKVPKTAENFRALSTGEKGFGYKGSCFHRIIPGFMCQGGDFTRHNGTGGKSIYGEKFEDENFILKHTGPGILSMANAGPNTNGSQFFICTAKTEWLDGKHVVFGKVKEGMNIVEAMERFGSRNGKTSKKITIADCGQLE
Summary of the method: (§1)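 TR-FRET read-out: a drop in ratio relative to DMSO wells marks disruption of the Ras:RAF complex, reported as IC50. Compounds (3-fold series, 10 points, top 30 μM final) incubated 3 h at 25° C before Eu-anti-His 10 nM and APC-anti-GST 50 nM, 1.5 h more.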

[2] = target: K-Ras G13C (Homo sapiens (Human), UniProt P01116+P62937, G13C); experiment: Ras-Raf (BRAF RBD) disruption / FRET / MOA assay, KRAS G13C; type: biochemical; conditions: KRAS G13C; Ras-Raf disruption/FRET/MOA assay; read-out: IC50* KRAS G13C FRET data
Chain of K-Ras G13C (P01116-2 other isoform, or with tags, fused parts or gaps G13C): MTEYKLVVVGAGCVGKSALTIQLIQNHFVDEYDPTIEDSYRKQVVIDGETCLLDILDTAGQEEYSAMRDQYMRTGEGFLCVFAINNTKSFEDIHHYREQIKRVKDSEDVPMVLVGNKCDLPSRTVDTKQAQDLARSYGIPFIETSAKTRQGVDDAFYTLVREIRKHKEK
Chain of K-Ras G13C (P62937 whole entry): as the sequence (P62937 whole entry) above
Summary of the method: as §1

[3] = target: KRAS G12D (Homo sapiens (Human), UniProt P01116+P62937, G12D); experiment: Ras-Raf (BRAF RBD) disruption / FRET / MOA assay, KRAS G12D; type: biochemical; conditions: Ras-Raf disruption/FRET/MOA assay; class symbols; read-out: KRAS G12D FRET data IC50
Chain of KRAS G12D (P01116-2 other isoform, or with tags, fused parts or gaps G12D): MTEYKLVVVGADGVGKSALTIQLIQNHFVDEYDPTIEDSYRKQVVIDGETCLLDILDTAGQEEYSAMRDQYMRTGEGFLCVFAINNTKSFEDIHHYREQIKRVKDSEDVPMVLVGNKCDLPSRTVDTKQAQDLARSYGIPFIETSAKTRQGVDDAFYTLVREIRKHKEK
Chain of KRAS G12D (P62937 whole entry): as the sequence (P62937 whole entry) above
Summary of the method: as §1

[4] = target: KRAS G13D (Homo sapiens (Human), UniProt P01116+P62937, G13D); experiment: Ras-Raf (BRAF RBD) disruption / FRET / MOA assay, KRAS G13D; type: biochemical; conditions: read-out: IC50* KRAS G13D FRET data
Chain of KRAS G13D (P01116-2 other isoform, or with tags, fused parts or gaps G13D): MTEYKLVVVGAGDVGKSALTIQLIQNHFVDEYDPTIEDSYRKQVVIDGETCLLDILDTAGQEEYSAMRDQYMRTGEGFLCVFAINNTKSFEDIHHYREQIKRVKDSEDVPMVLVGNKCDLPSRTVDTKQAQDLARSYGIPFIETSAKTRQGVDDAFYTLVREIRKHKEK
Chain of KRAS G13D (P62937 whole entry, canonical isoform): as the sequence (P62937 whole entry) above
Description: (§2) The purpose of this biochemical assay is to measure the ability of test compounds to facilitate ternary complex formation between a nucleotide-loaded Ras isoform and cyclophilin A; the resulting ternary complex disrupts binding to a BRAF^RBD construct, inhibiting Ras signaling through a RAF effector.
(§3) Compound is present in plate wells as a 10-point 3-fold dilution series starting at a final concentration of 30 μM. After incubation at 25° C. for 3 hours, a mixture of Anti-His Eu-W1024 and anti-GST allophycocyanin is then added to assay sample wells at final concentrations of 10 nM and 50 nM, respectively, and the reaction incubated for an additional 1.5 hours. […] Compounds that facilitate disruption of a Ras:RAF complex are identified as those eliciting a decrease in the TR-FRET ratio relative to DMSO control wells.
This protocol may also be executed substituting other Ras proteins or nucleotides.
The purpose of this biochemical assay was to measure the ability of test compounds to facilitate ternary complex formation between a nucleotide-loaded K-Ras isoform and Cyclophilin A; the resulting ternary complex disrupts binding to a BRAF^RBD construct, inhibiting K-Ras signaling through a RAF effector. Data is reported as IC50 values.
Compound was present in plate wells as a 10-point 3-fold dilution series starting at a final concentration of 30 μM. After incubation at 25° C. for 3 hours, a mixture of Anti-His Eu-W1024 and anti-GST allophycocyanin was then added to assay sample wells at final concentrations of 10 nM and 50 nM, respectively, and the reaction incubated for an additional 1.5 hours. […] Compounds that facilitate disruption of a K-Ras:RAF complex were identified as those eliciting a decrease in the TR-FRET ratio relative to DMSO control wells.

[5] = test system: NCI-H358 cells (K-Ras G12C); experiment: Potency assay: pERK in NCI-H358 cells; type: cell-based, human; conditions: H358 KRAS G12C, read-out: pERK EC50
Summary of the method: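 pERK decrease read by AlphaLISA SureFire p-ERK1/2 or In-Cell Western after 4 h compound exposure at 37 °C, 5% CO2.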

[6] = target: KRAS G12V (Homo sapiens (Human), UniProt P01116+P62937, G12V); experiment: Ras-Raf (BRAF RBD) disruption / FRET / MOA assay, KRAS G12V; type: biochemical; conditions: read-out: IC50* KRAS G12V FRET data
Chain of KRAS G12V (P01116-2 other isoform, or with tags, fused parts or gaps G12V): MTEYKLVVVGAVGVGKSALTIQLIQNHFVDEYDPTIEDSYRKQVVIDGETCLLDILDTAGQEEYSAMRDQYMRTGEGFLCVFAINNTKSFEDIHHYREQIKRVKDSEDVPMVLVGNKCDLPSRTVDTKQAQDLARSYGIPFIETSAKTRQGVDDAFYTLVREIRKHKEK
Chain of KRAS G12V (P62937 whole entry): as the sequence (P62937 whole entry) above
Summary of the method: as §1

[7] = target: K-Ras G12C (Homo sapiens (Human), UniProt P01116+P62937, G12C); experiment: Ras-Raf (BRAF RBD) disruption / FRET / MOA assay, KRAS G12C; type: biochemical; conditions: KRAS G12C; Ras-Raf disruption/FRET/MOA assay; read-out: IC50* KRAS G12C FRET data
Chain of K-Ras G12C (P01116-2 other isoform, or with tags, fused parts or gaps G12C): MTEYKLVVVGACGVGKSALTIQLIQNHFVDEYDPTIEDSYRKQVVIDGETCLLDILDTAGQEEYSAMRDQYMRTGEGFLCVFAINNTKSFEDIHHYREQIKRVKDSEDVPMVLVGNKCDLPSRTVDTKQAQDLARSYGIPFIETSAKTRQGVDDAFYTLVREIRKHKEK
Chain of K-Ras G12C (P62937 whole entry): as the sequence (P62937 whole entry) above
Summary of the method: as §1

[8] = target: KRAS WT (Homo sapiens (Human), UniProt P01116+P62937); experiment: Ras-Raf (BRAF RBD) disruption / FRET / MOA assay, KRAS WT; type: biochemical; conditions: read-out: IC50* KRAS WT FRET data
Chain of KRAS WT (P01116-2 other isoform, or with tags, fused parts or gaps): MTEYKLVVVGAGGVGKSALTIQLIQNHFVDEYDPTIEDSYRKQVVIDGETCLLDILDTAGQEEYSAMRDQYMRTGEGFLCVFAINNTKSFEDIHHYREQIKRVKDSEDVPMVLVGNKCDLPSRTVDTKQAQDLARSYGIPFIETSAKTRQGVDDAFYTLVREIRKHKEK
Chain of KRAS WT (P62937 whole entry): as the sequence (P62937 whole entry) above
Summary of the method: as §1

[9] = target: NRAS G12C (Homo sapiens (Human), UniProt P01111+P62937, G12C); experiment: Ras-Raf (BRAF RBD) disruption / FRET / MOA assay, NRAS G12C; type: biochemical; conditions: read-out: IC50* NRAS G12C FRET data
Chain of NRAS G12C (P01111 whole entry G12C): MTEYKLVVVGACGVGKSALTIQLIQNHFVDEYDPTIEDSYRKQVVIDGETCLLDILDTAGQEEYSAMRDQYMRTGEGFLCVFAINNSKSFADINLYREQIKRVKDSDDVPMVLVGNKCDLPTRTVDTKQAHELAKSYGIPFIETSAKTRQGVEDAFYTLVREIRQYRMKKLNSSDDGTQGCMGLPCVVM
Chain of NRAS G12C (P62937 whole entry): as the sequence (P62937 whole entry) above
Description: as §2, §3
This protocol may also be executed substituting other Ras proteins or nucleotides. […]

Row | Compound | IC50 [1] | IC50 [2] | IC50 [3] | IC50 [4] | EC50 ([5]; Homo sapiens, NCI-H358) [µM] | IC50 [6] | IC50 [7] | IC50 [8] | IC50 [9] | EC50 [5] [µM]
1 | C=CS(=O)(=O)N1CC[C@H](C(=O)N(C)[C@H](C(=O)N[C@H]2Cc3nc(cs3)-c3ccc4c(c3)c(c(-c3cccnc3[C@H](C)OC)n4CC)CC(C)(C)COC(=O)[C@@H]3CCCN(N3)C2=O)C(C)C)C1 (atropisomer, axis not shown) [Example A283] | 1 µM to 10 µM and > 10 µM (2×) | 10 nM to 100 nM and 1 µM to 10 µM (2×) | > 10 µM | > 10 µM | < 5 | 1 µM to 10 µM and > 10 µM (2×) | 10 nM to 100 nM and 1 µM to 10 µM (2×) | 1 µM to 10 µM and > 10 µM (2×) | 0.1 to 1 µM and 1 to 10 µM and > 10 µM | 
2 | C=CC(=O)N1CC[C@H](C(=O)N(C)[C@H](C(=O)N[C@H]2Cc3cc(O)cc(c3)-c3ccc4c(c3)c(c(-c3cccnc3[C@@H](OC)C3CC3)n4CC)CC(C)(C)COC(=O)[C@@H]3CCCN(N3)C2=O)C(C)C)C1 (atropisomer, axis not shown) [Example A206] | 0.1 to 1 µM | 1 to 10 µM | > 10 µM | 1 to 10 µM | < 5 | 0.1 to 1 µM | 0.1 to 1 µM | 1 to 10 µM | 0.1 to 1 µM | 
3 | CCn1c(-c2cccnc2[C@H](C)OC)c2c3cc(ccc31)-c1cccc(c1)C[C@H](NC(=O)[C@H](C(C)C)N(C)C(=O)[C@H]1CCN(C(=O)C#CC(C)(C)N3CCC(F)(F)C3)C1)C(=O)N1CCC[C@H](N1)C(=O)OCC(C)(C)C2 (atropisomer, axis not shown) [Example A325] | 1 to 10 µM | 1 to 10 µM | > 10 µM | > 10 µM | < 5 | 1 to 10 µM | 1 to 10 µM | > 10 µM | 1 to 10 µM | 
4 | CCn1c(-c2cccnc2COC)c2c3cc(ccc31)-c1cc(O)cc(c1)C[C@H](NC(=O)[C@H](C(C)C)N(C)C(=O)[C@H]1CCN(C(=O)C#CC3(N(C)C)COC3)C1)C(=O)N1CCC[C@H](N1)C(=O)OCC(C)(C)C2 [Example A241] | 0.1 to 1 µM and 1 to 10 µM | 0.1 to 1 µM | 1 to 10 µM and > 10 µM | 1 to 10 µM | < 5 | 0.1 to 1 µM and 1 to 10 µM | 0.01 to 0.1 µM | 1 to 10 µM | 0.01 to 0.1 µM | 
5 | CCn1c(-c2cccnc2[C@H](C)OC)c2c3cc(ccc31)-c1cccc(c1)C[C@H](NC(=O)[C@H](C(C)C)N(C)C(=O)[C@H]1CCN(C(=O)/C=C/CN(C)C)C1)C(=O)N1CCC[C@H](N1)C(=O)OCC(C)(C)C2 (atropisomer, axis not shown) [Example A187] | 1 to 10 µM and > 10 µM | > 10 µM and 1 to 10 µM | > 10 µM | 1 to 10 µM and > 10 µM | < 5 | 1 to 10 µM and > 10 µM | 0.01 to 0.1 µM and 1 to 10 µM | 1 to 10 µM and > 10 µM | 0.01 to 0.1 µM and 1 to 10 µM | 
6 | CCn1c(-c2cccnc2[C@H](C)OC)c2c3cc(ccc31)-c1cc(O)cc(c1)C[C@H](NC(=O)[C@H](C(C)C)N(C)C(=O)c1ccc(NC(=O)/C=C/CN(C)C)cn1)C(=O)N1CCC[C@H](N1)C(=O)OCC(C)(C)C2 (atropisomer, axis not shown) [Example A251] | 0.1 to 1 µM and 1 to 10 µM | 0.01 to 0.1 µM and < 0.01 µM | 1 to 10 µM and > 10 µM | 0.1 to 1 µM and 1 to 10 µM | < 5 | 0.1 to 1 µM and 1 to 10 µM | 0.01 to 0.1 µM | 0.1 to 1 µM and 1 to 10 µM | 0.01 to 0.1 µM | 
7 | CCn1c(-c2cccnc2COC)c2c3cc(ccc31)-c1cc(O)cc(c1)C[C@H](NC(=O)[C@H](C(C)C)N(C)C(=O)[C@H]1CCN(C(=O)C#C[C@@H]3CCCN3C)C1)C(=O)N1CCC[C@H](N1)C(=O)OCC(C)(C)C2 [Example A196] | 0.1 to 1 µM and > 10 µM | 0.01 to 0.1 µM and 0.1 to 1 µM | 1 to 10 µM and > 10 µM | 0.1 to 1 µM and > 10 µM | < 5 | 0.1 to 1 µM and > 10 µM | 0.01 to 0.1 µM and < 0.01 µM | 1 to 10 µM and > 10 µM | 0.01 to 0.1 µM and < 0.01 µM | 
8 | CCn1c(-c2cccnc2[C@H](C)OC)c2c3cc(ccc31)-c1cc(cc(C(F)F)c1)C[C@H](NC(=O)[C@H](C(C)C)N(C)C(=O)[C@H]1CCN(C(=O)C#CC(C)(C)N3CCC3)C1)C(=O)N1CCC[C@H](N1)C(=O)OCC(C)(C)C2 (atropisomer, axis not shown) [Example A466] | 1 to 10 µM | 0.1 to 1 µM | > 10 µM | 1 to 10 µM | < 5 | 1 to 10 µM | 0.01 to 0.1 µM | 1 to 10 µM | 0.01 to 0.1 µM | 
9 | C=CC(=O)N1CC[C@H](C(=O)N(C)[C@H](C(=O)N[C@H]2Cc3nc(cs3)-c3ccc4c(c3)c(c(-c3cc(C5=CCN(C)CC5)cnc3[C@H](C)OC)n4CC)CC(C)(C)COC(=O)[C@@H]3CCCN(N3)C2=O)C(C)C)C1 (atropisomer, axis not shown) [Example A520] | 1 to 10 µM | 1 to 10 µM | 1 to 10 µM | 1 to 10 µM |  | 1 to 10 µM | 0.1 to 1 µM | 1 to 10 µM | 0.1 to 1 µM | < 5
10 | C=CC(=O)N1CC[C@H](C(=O)N(C)[C@H](C(=O)N[C@H]2Cc3nc(cs3)-c3ccc4c(c3)c(c(-c3cccnc3[C@H](C)OC)n4CC)CC(C)(C)COC(=O)[C@@H]3CCCN(N3)C2=O)C(C)C)C1 (atropisomer, axis not shown) [Example A279] | > 10 µM | > 10 µM (2×) and 1 µM to 10 µM | > 10 µM | > 10 µM | < 5 | > 10 µM | 1 µM to 10 µM and > 10 µM (2×) | > 10 µM | 1 µM to 10 µM and > 10 µM (2×) | 
11 | CCn1c(-c2cccnc2[C@H](C)OC)c2c3cc(ccc31)-c1cc(O)cc(c1)C[C@H](NC(=O)[C@H](C(C)C)N(C)C(=O)[C@H]1CCN(C(=O)/C=C/CN(C)C)C1)C(=O)N1CCC[C@H](N1)C(=O)OCC(C)(C)C2 (atropisomer, axis not shown) [Example A183] | 1 to 10 µM and 0.01 to 0.1 µM | 0.01 to 0.1 µM and 1 to 10 µM | 1 to 10 µM and 0.01 to 0.1 µM | 1 to 10 µM and 0.01 to 0.1 µM | < 5 | 0.1 to 1 µM and 0.01 to 0.1 µM | 0.01 to 0.1 µM and < 0.01 µM | 1 to 10 µM and 0.01 to 0.1 µM | 0.01 to 0.1 µM and < 0.01 µM | 
